The results in this text go back to patent US6740664B2, “Methods for treating otic and ophthalmic infections” (Alcon, Inc., priority 1998, dated 2004).

The test system of assay [1] is Microbacterium alconae. Kind of assay: In vitro MIC by agar and broth dilution methods (NCCLS M7-A4), clinical isolates. It counts as cell-based. The method, then:
(§1) The activity levels were determined as MIC (minimum inhibitory concentration) values. In order to compare the activity of the compounds of the present invention to other antibiotics, MIC values for representatives quinolones, aminoglycosides, β-lactams and other types of antibiotics were also determined. […] The MCC numbers (e.g., “MCC 10647”) represent separate clinical isolates of the two Microbacterium species tested.
On the technique in general: Broth dilution looks for growth in wells or tubes with falling amounts of substance.

Assay [2] relates to Microbacterium otitidis. The description is as above. The class given is cell-based. The protocol:
as §1

In assay [3] the test system is S. epidermidis/methicillin resistant. Nature of the assay: MIC90 against bacteria associated with otic, ophthalmic and nasal infections. The class given is cell-based. The source says:
(§2) The concentrations of the antibiotics of formula (I) in the compositions of the present invention will vary depending on the intended use of the compositions (e.g., treatment of existing infections or prevention of post-surgical infections), and the relative antimicrobial activity of the specific antibiotic selected. The antimicrobial activity of antibiotics is generally expressed as the minimum concentration required to inhibit the growth of a specified pathogen. This concentration is also referred to as the “minimum inhibitory concentration” or “MIC”. The term “MIC90” refers to the minimum concentration of antibiotic required to inhibit the growth of ninety percent (90%) of the strains of a species. The concentration of an antibiotic required to totally kill a specified bacteria is referred to as the “minimum bactericidal concentration” or “MBC”.

Assay [4] has as its system S. epidermidis/methicillin sensitive. The assay is described as above. The class given is cell-based.
Description: as §2

For assay [5], the system named is S. aureus/methicillin sensitive. The description is as above. It counts as cell-based.
Description: as §2

Assay [6] relates to S. aureus/methicillin resistant. The description is as above. The class given is cell-based.
Description: as §2

Assay [7] deals with S. pneumoniae/penicillin sensitive. The assay is described as above. It counts as cell-based.
Description: as §2

Assay [8] relates to S. pneumoniae/penicillin resistant. Described as above. It counts as cell-based.
Description: as §2

Assay [9] relates to P. aeruginosa. Described as above. It counts as cell-based.
Description: as §2

Assay [10] relates to H influenzae/β-lactamase negative. Described as above. It counts as cell-based.
Description: as §2

Assay [11] concerns S. aureus/quinolone resistant. Described as above. It counts as cell-based.
Description: as §2

For assay [12], the system named is H. influenzae/β-lactamase positive. Described as above. It counts as cell-based.
Description: as §2

The test system of assay [13] is M. alconae. Described as above. It counts as cell-based, Microbacterium alconae.
Description: as §2

The test system of assay [14] is M. otitidis. The assay is described as above. The class given is cell-based, Microbacterium otitidis.
Description: as §2

Where [15] appears, read: Microbacterium alconae clinical isolate MCC 11316.
Setting [16] is: Microbacterium alconae clinical isolate MCC 11558.
The mark [17] stands for this setting: Microbacterium alconae clinical isolate MCC 11639.
Setting [18] is: Microbacterium alconae clinical isolate MCC 11653.
The mark [19] stands for this setting: Microbacterium alconae clinical isolate MCC 11699.
[20] abbreviates: Microbacterium otitidis clinical isolate MCC 10647.
The mark [21] stands for this setting: Microbacterium otitidis clinical isolate MCC 10810.
The mark [22] stands for this setting: Microbacterium otitidis clinical isolate MCC 10990.
[23] abbreviates: Microbacterium otitidis clinical isolate MCC 11495.
[24] abbreviates: Microbacterium otitidis clinical isolate MCC 11676.
The mark [25] stands for this setting: Staphylococcus epidermidis, read-out: MIC90.
[26] abbreviates: Staphylococcus aureus, read-out: MIC90.
[27] abbreviates: Streptococcus pneumoniae, read-out: MIC90.
Where [28] appears, read: Pseudomonas aeruginosa, read-out: MIC90.
The mark [29] stands for this setting: Haemophilus influenzae, read-out: MIC90.

≈ marks a conversion by molar mass, not a printed value. Where two headings read alike, the source gives them in different places.

For Gentamicin, the “minimum inhibitory concentration (MIC)” value in [1] (setting [15]) amounted to 2.0 micrograms per milliliter; in [1] (setting [16]), 2.0 micrograms per milliliter; in assay [1] (setting [17]) it was 2.0 micrograms per milliliter; in [1] (setting [18]), 2.0 micrograms per milliliter; in assay [1] (setting [19]), 2.0 micrograms per milliliter; in assay [2] (setting [20]), 8.0 micrograms per milliliter. In addition, the “minimum inhibitory concentration (MIC)” value came out at 4.0 micrograms per milliliter in assay [2] (setting [21]), 4.0 micrograms per milliliter in assay [2] (setting [22]), 16 micrograms per milliliter in assay [2] (setting [23]) and 4.0 micrograms per milliliter in [2] (setting [24]).
Turning to Neomycin, the “minimum inhibitory concentration (MIC)” value is 1.0 micrograms per milliliter in assay [1] (setting [15]); 1.0 micrograms per milliliter in assay [1] (setting [16]); 1.0 micrograms per milliliter in [1] (setting [17]); 1.0 micrograms per milliliter in [1] (setting [18]); 1.0 micrograms per milliliter in assay [1] (setting [19]); 8.0 micrograms per milliliter in [2] (setting [20]). The “minimum inhibitory concentration (MIC)” value is 2.0 micrograms per milliliter in [2] (setting [21]), 2.0 micrograms per milliliter in [2] (setting [22]), 8.0 micrograms per milliliter in assay [2] (setting [23]) and 2.0 micrograms per milliliter in [2] (setting [24]).
For the compound `N[C@@H]1[C@H]2CN(c3nc4c(cc3F)c(=O)c(C(=O)O)cn4-c3ccc(F)cc3F)C[C@@H]12` [Trovafloxacin], the MIC90 in assay [3] (setting [25]) came out at 4 µg/mL (≈ 9.61 µM); in [4] (setting [25]), 0.06 µg/mL (≈ 0.144 µM); in assay [5] (setting [26]), 0.03 µg/mL (≈ 0.0721 µM); in assay [6] (setting [26]) it was 2 µg/mL (≈ 4.8 µM); in assay [7] (setting [27]) it was 0.25 µg/mL (≈ 0.6 µM); in assay [8] (setting [27]), 0.25 µg/mL (≈ 0.6 µM). In addition, the MIC90 in assay [9] (setting [28]) was found to be 2 µg/mL (≈ 4.8 µM); in [10] (setting [29]) it was 0.03 µg/mL (≈ 0.0721 µM); in [11] (setting [26]), 4 µg/mL (≈ 9.61 µM); in [12] (setting [29]) it was 0.03 µg/mL (≈ 0.0721 µM).
As to Polymyxin B, the “minimum inhibitory concentration (MIC)” value in assay [1] (setting [17]) was 16 micrograms per milliliter; in [1] (setting [18]) it was 16 micrograms per milliliter; in [1] (setting [19]), 16 micrograms per milliliter; in assay [2] (setting [21]), 260 micrograms per milliliter; in [2] (setting [22]) it was 260 micrograms per milliliter; in assay [2] (setting [24]) it was 16 micrograms per milliliter.
Grepafloxacin: the MIC90 was determined as 0.13 micrograms per milliliter in assay [3]; 0.13 micrograms per milliliter in assay [4]; 0.13 micrograms per milliliter in assay [5]; 0.13 micrograms per milliliter in [6]; 0.25 micrograms per milliliter in [7]; 0.25 micrograms per milliliter in assay [8]. For the same compound, the MIC90 in assay [9] was found to be 8.0 micrograms per milliliter; in assay [10] it was 0.008 micrograms per milliliter; in [11], 0.13 micrograms per milliliter; in assay [12], 0.008 micrograms per milliliter.
Take Moxifloxacin: the MIC90 amounted to 0.25 micrograms per milliliter in [13]; 2.0 micrograms per milliliter in [14]; 4.0 micrograms per milliliter in assay [3]; 0.25 micrograms per milliliter in [4]; 0.13 micrograms per milliliter in assay [5]; 4.0 micrograms per milliliter in [6]. In addition, the MIC90 in assay [7] was 0.25 micrograms per milliliter; in assay [8], 0.25 micrograms per milliliter; in assay [9] it was 8.0 micrograms per milliliter; in assay [10] it was 0.06 micrograms per milliliter; in assay [11] it was 4.0 micrograms per milliliter; in assay [12] it was 0.06 micrograms per milliliter.
As for `COc1c(N2CCNC(C)C2)c(F)cc2c(=O)c(C(=O)O)cn(C3CC3)c12` (centres unmarked) [Gatifloxacin], the MIC90 in [3] (setting [25]) is 4 µg/mL (≈ 10.7 µM); in assay [4] (setting [25]), 0.5 µg/mL (≈ 1.33 µM); in assay [5] (setting [26]), 0.25 µg/mL (≈ 0.666 µM); in assay [6] (setting [26]), 8 µg/mL (≈ 21.3 µM); in assay [7] (setting [27]), 0.25 µg/mL (≈ 0.666 µM); in assay [8] (setting [27]), 0.25 µg/mL (≈ 0.666 µM). The MIC90 in [9] (setting [28]) is 2 µg/mL (≈ 5.33 µM); in assay [10] (setting [29]), 0.06 µg/mL (≈ 0.16 µM); in assay [11] (setting [26]), 8 µg/mL (≈ 21.3 µM); in assay [12] (setting [29]), 0.06 µg/mL (≈ 0.16 µM).
